Assay results as given in patent US8841233B2, “Herbicidal compositions comprising 4-amino-3-chloro-5-fluoro-6-(4-chloro-2-fluoro-3-methoxyphenyl) pyridine-2-carboxylic acid or a derivative thereof and 4-hydroxyphenyl-pyruvate dioxygenase (HPPD) inhibitors” (Dow Agrosciences LLC, priority 2012, dated 2014).

Legend:
Assay in all cases: Post-emergence foliar-applied weed control, greenhouse (Example I)
ECHCO = type: in vivo, Echinochloa colona (L.) Link
Text: (§1) Evaluation of Post-emergence Foliar-Applied Herbicidal Mixtures for Weed Control in Direct Seeded Rice
(§2) Seeds or nutlets of the desired test plant species were planted in a soil matrix prepared by mixing a loam or sandy loam soil (e.g., 28.6 percent silt, 18.8 percent clay, and 52.6 percent sand, with a pH of about 5.8 and an organic matter content of about 1.8 percent) and calcareous grit in an 80 to 20 ratio. The soil matrix was contained in plastic pots with a volume of 1 quart and a surface area of 83.6 square centimeters (cm^2). When required to ensure good germination and healthy plants, a fungicide treatment and/or other chemical or physical treatment was applied. The plants were grown for 8-22 days in a greenhouse with an approximate 14 h photoperiod which was maintained at about 29° C. during the day and 26° C. during the night. Nutrients (Peters Excel® 15-5-15 5-Ca 2-Mg and iron chelate) were applied in the irrigation solution as needed and water was added on a regular basis. Supplemental lighting was provided with overhead metal halide 1000-Watt lamps as necessary. The plants were employed for testing when they reached the first through fourth true leaf stage.
(§3) Treatments consisted of the acid or esters of 4-amino-3-chloro-5-fluoro-6-(4-chloro-2-fluoro-3-methoxy-phenyl)pyridine-2-carboxylic acid (Compound A), each formulated as an SC (suspension concentrate), and various herbicidal components alone and in combination. Forms of Compound A were applied on an acid equivalent basis.
(§4) Other herbicidal components were applied on an active ingredient basis and included 4-hydroxyphenyl pyruvate dioxygenase (HPPD)-inhibiting herbicides mesotrione formulated as Callisto®, sulcotrione formulated as Mikado®, pyrazolynate formulated as Sunbird® 10% GR, and benzobicyclon formulated as Benzobicyclon 3.5%.
(§5) Treatment requirements were calculated based upon the rates being tested, the concentration of active ingredient or acid equivalent in the formulation, and a 12 mL application volume at a rate of 187 L/ha.
(§6) For treatments comprised of formulated compounds, measured amounts of compounds were placed individually in 25 mL glass vials and diluted in a volume of 1.25% (v/v) Agri-Dex® crop oil concentrated to obtain 12× stock solutions. […] Application solutions were prepared by adding an appropriate amount of each stock solution (e.g., 1 mL) and diluted to the appropriate final concentrations with the addition of 10 mL of an aqueous mixture of 1.25% (v/v) crop oil concentrate so that the final spray solutions contained 1.25+/−0.05% (v/v) crop oil concentrate.
(§7) For treatments comprised of formulated and technical compounds, weighed amounts of the technical materials were placed individually in 25 mL glass vials and dissolved in a volume of 97:3 v/v acetone/DMSO to obtain 12× stock solutions, and measured amounts of the formulated compounds were placed individually in 25 mL glass vials and diluted in a volume of 1.5% (v/v) crop oil concentrate or water to obtain 12× stock solutions. […] Application solutions were prepared by adding an appropriate amount of each stock solution (e.g., 1 mL) and diluted to the appropriate final concentrations with the addition of an appropriate amount of an aqueous mixture of 1.5% (v/v) crop oil concentrate so that the final spray solutions contained 1.25% (v/v) crop oil concentrate. As required, additional water and/or 97:3 v/v acetone/DMSO was added to individual application solutions so that the final acetone and DMSO concentrations of the application solutions being compared were 8.1% and 0.25%, respectively.
(§8) All stock solutions and applications solutions were visually inspected for compound compatibility prior to application. Spray solutions were applied to the plant material with an overhead Mandel track sprayer equipped with a 8002E nozzles calibrated to deliver 187 L/ha over an application area of 0.503 m^2 at a spray height of 18 to 20 inches (46 to 50 cm) above average plant canopy height. […]

CYPIR = type: in vivo, Cyperus iria L.
Text: as §1, §2, §3, §4, §5, §6, §7, §8

ECHCG = type: in vivo, Echinochloa crusgalli (L.) Beauv.
Text: as §1, §2, §3, §4, §5, §6, §7, §8

Structure (SMILES): COc1c(Cl)ccc(-c2nc(C(=O)OCc3ccccc3)c(Cl)c(N)c2F)c1F [Compound A Benzyl Ester, benzyl ester of 4-amino-3-chloro-5-fluoro-6-(4-chloro-2-fluoro-3-methoxy-phenyl)pyridine-2-carboxylic acid]
- Visual Weed Control (%) - 20 DAA ECHCO Obs (ECHCO; 4.38 gae/ha): 40%
- Visual Weed Control (%) - 22 DAA ECHCO Obs (ECHCO; 4.38 gae/ha): 30%
- Visual Weed Control (%) - 22 DAA ECHCO Obs (ECHCO; 8.75 gae/ha): 55%
- Visual Weed Control (%) - 22 DAA CYPIR Obs (CYPIR; 4.38 gae/ha): 10%
- Visual Weed Control (%) - 22 DAA CYPIR Obs (CYPIR; 8.75 gae/ha): 65%
- Visual Weed Control (%) - 20 DAA ECHCG Obs (ECHCG; 4.38 gae/ha): 40%
- Visual Weed Control (%) - 22 DAA ECHCG Obs (ECHCG; 4.38 gae/ha): 40%
- Visual Weed Control (%) - 22 DAA ECHCG Obs (ECHCG; 8 gae/ha): 35%
- Visual Weed Control (%) - 22 DAA ECHCG Obs (ECHCG; 8.75 gae/ha): 60%
- Visual Weed Control (%) - 22 DAA ECHCG Obs (ECHCG; 16 gae/ha): 65%
- Visual Weed Control (%) - 22 DAA ECHCG Obs (ECHCG; 32 gae/ha): 80%

Structure (SMILES): COc1c(Cl)ccc(-c2nc(C(=O)O)c(Cl)c(N)c2F)c1F [Compound A Acid, 4-amino-3-chloro-6-(4-chloro-2-fluoro-3-methoxyphenyl)-5-fluoropyridine-2-carboxylic acid]
- Visual Weed Control (%) - 20 DAA ECHCO Obs (ECHCO; 4.38 gae/ha): 40%
- Visual Weed Control (%) - 22 DAA ECHCO Obs (ECHCO; 5.3 gae/ha): 65%
- Visual Weed Control (%) - 20 DAA ECHCO Obs (ECHCO; 8.75 gae/ha): 60%
- Visual Weed Control (%) - 22 DAA ECHCO Obs (ECHCO; 10.6 gae/ha): 65%
- Visual Weed Control (%) - 20 DAA ECHCO Obs (ECHCO; 17.5 gae/ha): 85%
- Visual Weed Control (%) - 20 DAA CYPIR Obs (CYPIR; 4.38 gae/ha): 75%
- Visual Weed Control (%) - 20 DAA CYPIR Obs (CYPIR; 8.75 gae/ha): 90%
- Visual Weed Control (%) - 20 DAA CYPIR Obs (CYPIR; 17.5 gae/ha): 90%
- Visual Weed Control (%) - 20 DAA ECHCG Obs (ECHCG; 4.38 gae/ha): 25%
- Visual Weed Control (%) - 22 DAA ECHCG Obs (ECHCG; 5.3 gae/ha): 65%
- Visual Weed Control (%) - 20 DAA ECHCG Obs (ECHCG; 8.75 gae/ha): 80%
- Visual Weed Control (%) - 22 DAA ECHCG Obs (ECHCG; 10.6 gae/ha): 55%
